Reference: ChEMBL document CHEMBL4020850, “Discovery of LSZ102, a Potent, Orally Bioavailable Selective Estrogen Receptor Degrader (SERD) for the Treatment of Estrogen Receptor Positive Breast Cancer” (J Med Chem, 2018)
Values after ≈ are worked out from the molar mass of the structure shown. Blank lines part the entries; values can stand above or below the molecule they belong to. Active and inactive are the calls of the source. No cut-off for these calls is given here.

Assays:
Estrogen receptor [1] = molecular target: T1, Estrogen receptor (Homo sapiens, UniProt P03372); assay: Induction of selective estrogen receptor alpha degradation in human MCF7 cells harboring TK-ERE-Luc assessed as reduction in estradiol-induced transcriptional activity after 24 hrs by luciferase reporter gene assay; assay type: cell-based
T1 sequence (P03372 whole entry): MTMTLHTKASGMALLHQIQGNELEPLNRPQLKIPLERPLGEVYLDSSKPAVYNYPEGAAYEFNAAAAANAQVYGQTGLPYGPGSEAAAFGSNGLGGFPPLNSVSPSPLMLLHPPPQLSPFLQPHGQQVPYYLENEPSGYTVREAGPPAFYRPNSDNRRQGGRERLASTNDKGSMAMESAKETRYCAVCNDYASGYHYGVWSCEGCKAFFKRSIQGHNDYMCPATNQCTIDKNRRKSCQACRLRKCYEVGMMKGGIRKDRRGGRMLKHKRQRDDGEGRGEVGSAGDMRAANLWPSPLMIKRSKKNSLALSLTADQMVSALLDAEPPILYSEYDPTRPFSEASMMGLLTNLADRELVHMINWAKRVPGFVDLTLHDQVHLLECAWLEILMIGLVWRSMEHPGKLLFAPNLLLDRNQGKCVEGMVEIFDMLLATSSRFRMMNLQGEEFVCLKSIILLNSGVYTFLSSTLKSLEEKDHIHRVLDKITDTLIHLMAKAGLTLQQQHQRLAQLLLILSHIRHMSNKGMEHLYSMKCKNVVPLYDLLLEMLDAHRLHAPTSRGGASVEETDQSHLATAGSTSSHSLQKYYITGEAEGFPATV

[2] = Cmax in C57BL/6 mouse at 3 mg/kg, po; assay type: ADME, organism-based; set-up: dose 3 mg/kg, route oral; settings: in vivo
[3] = Clearance in C57BL/6 mouse at 1 mg/kg, iv or 3 mg/kg, po; assay type: ADME, organism-based; settings: in vivo
[4] = Oral bioavailability in C57BL/6 mouse at 3 mg/kg; assay type: ADME, organism-based; settings: in vivo
[5] = Equilibrium solubility in pH 6.8 buffer at 1 mM after 16 hrs by HPLC based shake flask method; assay type: physicochemical
MCF7 [6] = assay: Antitumor activity against human MCF7 cells xenografted in NOD SCID gamma mouse assessed as change in tumor volume at 60 mg/kg, po 5 days per week for 48 days post tumor implantation measured 7 hrs post last dose; assay type: functional
Mus musculus [7] = assay: Downregulation of progesterone receptor mRNA level in NOD SCID gamma mouse xenografted with human MCF7 cells at 60 mg/kg, po 5 days per week for 48 days post tumor implantation measured 7 hrs post last dose by RT-PCR method; assay type: functional, organism-based
[8] = Oral bioavailability in Sprague-Dawley rat at 3 mg/kg; assay type: ADME, organism-based; settings: in vivo
[9] = Clearance in Sprague-Dawley rat at 1 mg/kg, iv or 3 mg/kg, po; assay type: ADME, organism-based; settings: in vivo
[10] = Cmax in Sprague-Dawley rat at 3 mg/kg, po; assay type: ADME, organism-based; set-up: dose 3 mg/kg, route oral; settings: in vivo
Estrogen receptor [11] = molecular target: T1, Estrogen receptor; assay: Induction of selective estrogen receptor alpha degradation in human MCF7 cells after 18 to 24 hrs by in-cell Western analysis; assay type: cell-based
[12] = AUC in NOD SCID gamma mouse xenografted with human MCF7 cells at 20 mg/kg, po qd for 19 days; assay type: ADME, organism-based; settings: in vivo
Rattus norvegicus [13] = assay: Dose normalized AUC (0 to t) in Sprague-Dawley rat at 1 mg/kg, iv; assay type: ADME, organism-based; settings: in vivo
Rattus norvegicus [14] = assay: Dose normalized Cmax in Sprague-Dawley rat at 3 mg/kg, po; assay type: ADME, organism-based; settings: in vivo
Rattus norvegicus [15] = assay: Dose normalized AUC (0 to t) in Sprague-Dawley rat at 3 mg/kg, po; assay type: ADME, organism-based; settings: in vivo
[16] = Cmax in NOD SCID gamma mouse xenografted with human MCF7 cells at 20 mg/kg, po qd for 19 days; assay type: ADME, organism-based; set-up: dose 20 mg/kg, route oral; settings: in vivo
Rattus norvegicus [17] = assay: Dose normalized AUC (0 to t) in Wistar Han rat at 100 mg/kg, po; assay type: ADME, organism-based; settings: in vivo
Canis familiaris [18] = assay: Dose normalized AUC (0 to t) in Beagle dog at 30 mg/kg, po; assay type: ADME, organism-based, Canis lupus familiaris; settings: in vivo
[19] = Elimination half life in Beagle dog at 0.3 mg/kg, iv or 10 mg/kg, po; assay type: ADME, organism-based, Canis lupus familiaris; settings: in vivo, read-out: beta t1/2 (converted)
Canis familiaris [20] = assay: Dose normalized Cmax in Beagle dog at 10 mg/kg, po; assay type: ADME, organism-based, Canis lupus familiaris; settings: in vivo
MCF7 [21] = assay: Antitumor activity against human MCF7 cells xenografted in NOD SCID gamma mouse assessed as change in tumor volume at 20 mg/kg, po qd for 48 days post tumor implantation measured 7 hrs post last dose; assay type: functional
MCF7 [22] = assay: Antiproliferative activity against human MCF7 cells after 6 days in presence of estradiol by CellTiter-Glo assay; settings: MCF7, 144 h
Canis familiaris [23] = assay: Dose normalized AUC (0 to t) in Beagle dog at 10 mg/kg, po; assay type: ADME, organism-based, Canis lupus familiaris; settings: in vivo
Rattus norvegicus [24] = assay: Dose normalized AUC (0 to t) in Wistar Han rat at 30 mg/kg, po; assay type: ADME, organism-based; settings: in vivo
Rattus norvegicus [25] = assay: Dose normalized Cmax in Wistar Han rat at 30 mg/kg, po; assay type: ADME, organism-based; settings: in vivo
Rattus norvegicus [26] = assay: Dose normalized AUC (0 to t) in Wistar Han rat at 300 mg/kg, po; assay type: ADME, organism-based; settings: in vivo
Canis familiaris [27] = assay: Dose normalized Cmax in Beagle dog at 30 mg/kg, po; assay type: ADME, organism-based, Canis lupus familiaris; settings: in vivo
Canis familiaris [28] = assay: Clearance in Beagle dog at 0.3 mg/kg, iv or 10 mg/kg, po relative to hepatic blood flow; assay type: ADME, organism-based, Canis lupus familiaris; settings: in vivo
[29] = Volume of distribution at steady state in Beagle dog at 0.3 mg/kg, iv or 10 mg/kg, po; assay type: ADME, organism-based, Canis lupus familiaris; settings: in vivo, read-out: Vdss
[30] = Elimination half life in Sprague-Dawley rat at 1 mg/kg, iv or 3 mg/kg, po; assay type: ADME, organism-based; settings: in vivo, read-out: beta t1/2 (converted)
[31] = Clearance in Beagle dog at 0.3 mg/kg, iv or 10 mg/kg, po; assay type: ADME, organism-based, Canis lupus familiaris; settings: in vivo
Canis familiaris [32] = assay: Dose normalized AUC (0 to t) in Beagle dog at 0.3 mg/kg, iv; assay type: ADME, organism-based, Canis lupus familiaris; settings: in vivo
[33] = Oral bioavailability in Beagle dog at 10 mg/kg; assay type: ADME, organism-based, Canis lupus familiaris; settings: in vivo
Rattus norvegicus [34] = assay: Dose normalized Cmax in Wistar Han rat at 300 mg/kg, po; assay type: ADME, organism-based; settings: in vivo
Mus musculus [35] = assay: In vivo inhibition of ER protein level in NOD SCID gamma mouse xenografted with human MCF7 cells at 20 mg/kg, po qd for 48 days post tumor implantation measured 7 hrs post last dose by Western blot method relative to control; assay type: functional
Mus musculus [36] = assay: Downregulation of progesterone receptor mRNA level in NOD SCID gamma mouse xenografted with human MCF7 cells at 20 mg/kg, po qd for 48 days post tumor implantation measured 7 hrs post last dose by RT-PCR method; assay type: functional, organism-based
[37] = Volume of distribution at steady state in Sprague-Dawley rat at 1 mg/kg, iv or 3 mg/kg, po; assay type: ADME, organism-based; settings: in vivo, read-out: Vdss
[38] = AUC in Beagle dog at 10 mg/kg, po; assay type: ADME, organism-based, Canis lupus familiaris; settings: in vivo
Rattus norvegicus [39] = assay: Dose normalized Cmax in Wistar Han rat at 100 mg/kg, po; assay type: ADME, organism-based; settings: in vivo

Compound: Oc1ccc(-c2sc3cc(O)ccc3c2Oc2ccc(/C=C/c3c[nH]cn3)cc2)cc1
solubility thermodynamic at 16 h, 1000 µM [5]: < 5 µM

Compound: Cn1cnc(/C=C/c2ccc(Oc3c(-c4ccc(O)cc4)sc4cc(O)ccc34)cc2)c1
solubility thermodynamic at 16 h, 1000 µM [5]: 9 µM (≈ 3.96 µg/mL)

Compound: CC(C)c1ccccc1-c1sc2cc(O)ccc2c1Oc1ccc(/C=C/C(=O)O)cc1
Cmax [2]: 1180 nM
clearance [3]: 15 mL/min/kg
bioavailability [4]: 13%

Compound: CC/C(=C(\c1ccccc1)c1ccc(OCCN(C)C)cc1)c1ccccc1 [TAMOXIFEN]
T/C (MCF7 [6]): 24%
Activity (Mus musculus [7]): Active

Compound: COCc1ccccc1-c1sc2cc(O)ccc2c1Oc1ccc(/C=C/C(=O)O)cc1
IC50 (Estrogen receptor [11]): 3 nM

Compound: CC/C(=C(/c1ccc(/C=C/C(=O)O)cc1)c1ccc2[nH]ncc2c1)c1ccc(F)cc1Cl [BRILANESTRANT]
Cmax [2]: 1240 nM
clearance [3]: 16 mL/min/kg
bioavailability [4]: 42%

Compound: CC(F)(F)c1cc(F)ccc1-c1sc2cc(O)ccc2c1Oc1ccc(/C=C/C(=O)O)cc1 [LSZ-102]
AUC at 456 h [12]: 3.23 µM·h
AUCt/dose (Rattus norvegicus [13]): 1849 nM·h
Cmax [2]: 492 nM
Cmax/dose (Rattus norvegicus [14]): 240 nM
bioavailability [8]: 33%
AUCt/dose (Rattus norvegicus [15]): 620 nM·h
Cmax [16]: 1070 nM
clearance [3]: 28 mL/min/kg
AUCt/dose (Rattus norvegicus [17]): 1940 nM·h
AUCt/dose (Canis familiaris [18]): 624 nM·h
clearance [9]: 19 mL/min/kg
half-life [19]: 4.1 h
Cmax/dose (Canis familiaris [20]): 268 nM
T/C (MCF7 [21]): 2.4%
IC50 (MCF7 [22]): 1.7 nM
AUCt/dose (Canis familiaris [23]): 962 nM·h
AUCt/dose (Rattus norvegicus [24]): 2117 nM·h
Cmax/dose (Rattus norvegicus [25]): 1259 nM
AUCt/dose (Rattus norvegicus [26]): 3405 nM·h
Cmax/dose (Canis familiaris [27]): 123 nM
CL (Canis familiaris [28]): 15%
Vd [29]: 0.3 L/kg
half-life [30]: 1.4 h
clearance [31]: 5 mL/min/kg
bioavailability [4]: 12%
AUCt/dose (Canis familiaris [32]): 7713 nM·h
bioavailability [33]: 12%
Cmax/dose (Rattus norvegicus [34]): 334 nM
inhibition in vivo at 20 mg/kg (Mus musculus [35]): 63%
Activity (Mus musculus [36]): Active
Vd [37]: 0.9 L/kg
AUC [38]: 9.62 µM·h
Cmax/dose (Rattus norvegicus [39]): 513 nM

Now from value to molecule:

IC50 (Estrogen receptor [1]): > 10000 nM
Compound: O=C(O)/C=C/c1ccc(Nc2c(-c3ccc(O)cc3)sc3cc(O)ccc23)cc1

Cmax [2]: 46 nM
clearance [3]: 46 mL/min/kg
bioavailability [4]: 2%
Compound: Cc1cc(-c2sc3cc(O)ccc3c2Oc2ccc(/C=C/C(=O)O)cc2)ccc1O

bioavailability [8]: 6%
clearance [9]: 54 mL/min/kg
Cmax [10]: 80 nM
solubility thermodynamic at 16 h, 1000 µM [5]: 340 µM (≈ 138 µg/mL)
Compound: O=C(O)/C=C/c1ccc(Oc2c(-c3ccc(O)cc3)sc3cc(O)ccc23)cc1

Cmax [2]: 505 nM
bioavailability [8]: 33%
clearance [3]: 22 mL/min/kg
clearance [9]: 24 mL/min/kg
Cmax [10]: 847 nM
bioavailability [4]: 19%
IC50 (Estrogen receptor [1]): 1820 nM
Compound: O=C(O)/C=C/c1ccc(Oc2c(-c3ccc(F)cc3)sc3cc(O)ccc23)cc1

solubility thermodynamic at 16 h, 1000 µM [5]: < 5 µM
Compound: O=C(/C=C/c1ccc(Oc2c(-c3ccc(O)cc3)sc3cc(O)ccc23)cc1)NCCC(F)(F)F
